This is an account of results in patent publication US20260240878A1, “PTP1B/TC-PTP DUAL INHIBITORS AND PROTEIN DEGRADERS” (Purdue Research Foundation, priority 2023, published 2026).

*1 amine or outer side, *2 acyl side, *3 side chain or, on linkers, in order; H or OH if unused. Where a SMILES comes first, the peptide text is derived from it. [ ]: non-standard residue; d: D form. The star is where a group is joined. NHBn(4-(4-Me-thiazol-5-yl)) = Cc1ncsc1-c1ccc(CN*)cc1; NHCH2(1,3-C6H4)CH2CO = O=C(Cc1cccc(CN[*:1])c1)[*:2]; F2Pmp = N[C@@H](Cc1ccc(C(F)(F)P(=O)(O)O)cc1)C(=O)O; Phenylacetyl(4-OH,3-OMe) = COc1cc(CC(=O)*)ccc1O; Benzoyl(3-Br,4-Me) = Cc1ccc(C(=O)*)cc1Br; X1 = Cc1ncsc1-c1ccc([C@H](C)N*)cc1; Hyp = O=C(O)[C@@H]1C[C@@H](O)CN1; X2 = O=C(CCN1CCN([*:1])CC1)[*:2]; Tle = CC(C)(C)[C@H](N)C(=O)O; 4Amb = NCc1ccc(C(=O)O)cc1; PEG1 = NCCOCCC(=O)O

Assay [1] has as its target T1, PTP1B (Homo sapiens, UniProt P18031).
T1 sequence (P18031 1-435): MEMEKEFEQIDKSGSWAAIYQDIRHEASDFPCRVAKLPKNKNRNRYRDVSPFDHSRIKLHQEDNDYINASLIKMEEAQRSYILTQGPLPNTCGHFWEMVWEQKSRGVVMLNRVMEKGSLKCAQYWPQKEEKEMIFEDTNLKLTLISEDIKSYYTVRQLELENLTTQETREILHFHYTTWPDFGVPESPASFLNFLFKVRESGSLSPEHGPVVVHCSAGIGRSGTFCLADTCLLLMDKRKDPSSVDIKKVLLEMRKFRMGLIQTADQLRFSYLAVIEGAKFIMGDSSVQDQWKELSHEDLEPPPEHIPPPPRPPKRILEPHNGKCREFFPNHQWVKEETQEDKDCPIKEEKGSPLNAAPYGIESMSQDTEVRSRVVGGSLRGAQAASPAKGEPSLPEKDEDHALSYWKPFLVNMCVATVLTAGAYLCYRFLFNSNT
The experiment in a line: PTP activity assay with pNPP substrate (IC50, Ki, mode of inhibition). In kind it is biochemical. As to conditions: pNPP 2 mM, pH 7.0, 25° C.; read-out: IC50, nM PTP1B. The procedure:
(§1) PTP activity was assayed using p-nitrophenyl phosphate (pNPP) as a substrate in DMG buffer (50 mM DMG. pH 7.0, 1 mM EDTA, 150 mM NaCl, 2 mM DTT, 0.1 mg/mL BSA) at 25° C. The assays were performed in 96-well plates. Normally, to determine the IC50 values, the reaction was initiated by the addition of enzyme (for PTP1B and TCPTP, the final concentration was 0.4 nM, for other PTPs, the final concentration was 10 nM) to a reaction mixture (0.2 mL) containing 2 mM (Km for the substrate) pNPP with various concentrations of inhibitors (see FIG. 1). The reaction rate was measured using a SpectraMax Plus 384 Microplate Spectrophotometer (Molecular Devices). Data were fitted using SigmaPlot Enzyme Kinetics Module (Systat Software, Inc.). To determine the mode of inhibition, the reactions were initiated by the addition of enzyme (final concentration for TC-PTP and PTP1B was 0.4 nM) to the reaction mixtures (0.2 mL) containing various concentrations of pNPP with different concentrations of the inhibitor. Data were fitted using SigmaPlot Enzyme Kinetics Module (Systat Software. Inc.).

In assay [2] the target is T2, TC-PTP (Homo sapiens, UniProt P17706).
T2 sequence (P17706 1-415): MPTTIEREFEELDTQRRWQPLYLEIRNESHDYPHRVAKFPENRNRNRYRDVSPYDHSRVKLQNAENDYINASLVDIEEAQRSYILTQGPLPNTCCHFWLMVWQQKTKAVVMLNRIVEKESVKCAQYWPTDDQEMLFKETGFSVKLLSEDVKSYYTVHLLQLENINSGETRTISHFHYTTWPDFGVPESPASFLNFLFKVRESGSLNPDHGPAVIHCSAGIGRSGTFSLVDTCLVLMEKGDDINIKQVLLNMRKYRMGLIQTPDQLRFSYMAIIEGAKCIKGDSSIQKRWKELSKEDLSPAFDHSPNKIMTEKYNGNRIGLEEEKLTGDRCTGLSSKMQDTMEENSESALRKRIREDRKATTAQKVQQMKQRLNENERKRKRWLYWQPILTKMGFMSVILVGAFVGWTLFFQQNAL
The description is as above. In kind it is biochemical. Particulars: pNPP 2 mM, pH 7.0, 25° C.; read-out: IC50, nM TC-PTP. The procedure:
as §1

The target of assay [3] is T1, PTP1B. The experiment in a line: Degradation assay in HEK293 cells (immunoblotting). Type of assay: cell-based. Also noted: endogenous in cells; host or cells: HEK293. As to conditions: 0.2 μM degrader, 16 hours. The procedure: (§2) HEK293. MIAPaCa-2, HepG2, U2OS, H116, MEF, B16F10, and MC38 cells, were grown in DMEM, while Jurkat and H358 cells were grown in RPMI 1640 supplemented with 10% fetal bovine serum, penicillin (50 units/mL), and streptomycin (50 μg/mL) in a 37° C. incubator containing 5% CO2. 20 ng/ml human (Biolegend #713906) or mouse (Biolegend #714006) Interferon-γ were used for JAK/STAT pathway stimulation.
(§3) Tissues or cultured cells were lysed with ice-cold lysis buffer (50 mM Tris (pH 8.0, 150 mM NaCl, 10% Glycerol, 1% Triton-X-100) supplied with phosphatase inhibitor (Bimake) and protease inhibitor mixture (Roche Applied Science). Equal amounts of protein were resolved by SDS-PAGE, transferred to nitrocellulose membrane, and subjected to immunoblotting. Antibodies used in this study include anti-following proteins: pSTAT1^Tyr701 (Cell Signaling Technology #9167, 1:3000), GAPDH (Cell Signaling Technology #97166, 1:5000), pJAK1^Tyr1034/1035 (Cell Signaling Technology #74129, 1:1000), pJAK2^Tyr1007/1008 (Cell Signaling Technology #3776, 1:1000), TC-PTP (Abcam #ab180764, 1:3000). PTP1B (Abcam #ab244207, 1:1500).
(§4) Degradation assay was conducted in HEK293 cells with 1 μM degrader and 24 hours incubation.
(§5) The degradation assay was conducted in HEK293 cells with 0.2 μM degrader and 16 hours incubation.

For assay [4], the target named is T2, TC-PTP. Briefly: Degradation assay in HEK293 cells (immunoblotting). Type of assay: cell-based. Also noted: endogenous in cells; host or cells: HEK293. Particulars: 0.2 μM degrader, 16 hours, read-out: % Protein Degradation TC-PTP. The procedure: as §2, §3, §4, §5
Background: A western blot detects proteins with antibodies after separation by electrophoresis.

What is called IC50 is the concentration that inhibits the measured activity by half. `COc1cc(CC(=O)N[C@@H](Cc2ccccc2)C(=O)N[C@@H](Cc2ccc(C(F)(F)P(=O)(O)O)cc2)C(=O)N[C@@H](CCCCNC(=O)c2ccc(C)c(Br)c2)C(=O)NCCOCCC(=O)N[C@H](C(=O)N2C[C@H](O)C[C@H]2C(=O)N[C@@H](C)c2ccc(-c3scnc3C)cc2)C(C)(C)C)ccc1O` [Compound 27, ((4-((2S,5S,15S)-5-(4-(3-bromo-4-methylbenzamido)butyl)-15-((2S,4R)-4-hydroxy-2-(((S)-1-(4-(4-methylthiazol-5-yl)phenyl)ethyl)carbamoyl)pyrrolidine-1-carbonyl)-2-((S)-2-(2-(4-hydroxy-3-methoxyphenyl)acetamido)-3-phenylpropanamido)-16,16-dimethyl-3,6,13-trioxo-10-oxa-4,7,14-triazaheptadecyl)phenyl)difluoromethyl)phosphonic Acid] ({Phenylacetyl(4-OH,3-OMe)}-F[F2Pmp]K(Benzoyl(3-Br,4-Me))[PEG1][Tle][Hyp]-X1): the IC50 in assay [1] came out at 15.5 ± 2.1 nM; in assay [2], 6.7 ± 2 nM. In assay [3], the “% Protein Degradation PTP1B” value came to 75%. The percent TC-PTP degradation at 0.2 µM in assay [4] is 63%.

On to `COc1cc(CC(=O)N[C@@H](Cc2ccccc2)C(=O)N[C@@H](Cc2ccc(C(F)(F)P(=O)(O)O)cc2)C(=O)N[C@@H](CCCCNC(=O)c2ccc(C)c(Br)c2)C(=O)NCCOCCC(=O)N[C@H](C(=O)N2C[C@H](O)C[C@H]2C(=O)NCc2ccc(-c3scnc3C)cc2)C(C)(C)C)ccc1O` [Compound 28, ((4-((2S,5S,15S)-5-(4-(3-bromo-4-methylbenzamido)butyl)-15-((2S,4R)-4-hydroxy-2-((4-(4-methylthiazol-5-yl)benzyl)carbamoyl)pyrrolidine-1-carbonyl)-2-((S)-2-(2-(4-hydroxy-3-methoxyphenyl)acetamido)-3-phenylpropanamido)-16,16-dimethyl-3,6,13-trioxo-10-oxa-4,7,14-triazaheptadecyl)phenyl)difluoromethyl)phosphonic Acid] ({Phenylacetyl(4-OH,3-OMe)}-F[F2Pmp]K(Benzoyl(3-Br,4-Me))[PEG1][Tle][Hyp]-{NHBn(4-(4-Me-thiazol-5-yl))}), for which the IC50 in assay [1] was determined as 15.4 ± 3.3 nM; in assay [2] it was 11.2 ± 1.3 nM. Moreover, the “% Protein Degradation PTP1B” value in assay [3] is reported as 45%. Moreover, the percent TC-PTP degradation at 0.2 µM in assay [4] was found to be 47%.

Regarding `COc1cc(CC(=O)N[C@@H](Cc2ccccc2)C(=O)N[C@@H](Cc2ccc(C(F)(F)P(=O)(O)O)cc2)C(=O)N[C@@H](CCCCNC(=O)c2ccc(C)c(Br)c2)C(=O)NCc2cccc(CC(=O)N[C@H](C(=O)N3C[C@H](O)C[C@H]3C(=O)NCc3ccc(-c4scnc4C)cc3)C(C)(C)C)c2)ccc1O` [Compound 48, ((4-((S)-3-(((S)-6-(3-bromo-4-methylbenzamido)-1-((3-(2-(((S)-1-((2S,4R)-4-hydroxy-2-((4-(4-methylthiazol-5-yl)benzyl)carbamoyl)pyrrolidin-1-yl)-3,3-dimethyl-1-oxobutan-2-yl)amino)-2-oxoethyl)benzyl)amino)-1-oxohexan-2-yl)amino)-2-((S)-2-(2-(4-hydroxy-3-methoxyphenyl)acetamido)-3-phenylpropanamido)-3-oxopropyl)phenyl)difluoromethyl)phosphonic Acid] ({Phenylacetyl(4-OH,3-OMe)}-F[F2Pmp]K(Benzoyl(3-Br,4-Me))[NHCH2(1,3-C6H4)CH2CO][Tle][Hyp]-{NHBn(4-(4-Me-thiazol-5-yl))}), the results for the IC50 in assay [1] and in assay [2] were 16.7 ± 3.3 nM and 11.5 ± 0.6 nM, respectively. In addition, the “% Protein Degradation PTP1B” value in assay [3] is on record as 75%. The percent TC-PTP degradation at 0.2 µM in assay [4] came to 70%.

`COc1cc(CC(=O)N[C@@H](Cc2ccccc2)C(=O)N[C@@H](Cc2ccc(C(F)(F)P(=O)(O)O)cc2)C(=O)N[C@@H](CCCCNC(=O)c2ccc(C)c(Br)c2)C(=O)NCc2ccc(C(=O)N[C@H](C(=O)N3C[C@H](O)C[C@H]3C(=O)NCc3ccc(-c4scnc4C)cc3)C(C)(C)C)cc2)ccc1O` [Compound 54, ((4-((S)-3-(((S)-6-(3-bromo-4-methylbenzamido)-1-((4-(((S)-1-((2S,4R)-4-hydroxy-2-((4-(4-methylthiazol-5-yl)benzyl)carbamoyl)pyrrolidin-1-yl)-3,3-dimethyl-1-oxobutan-2-yl)carbamoyl)benzyl)amino)-1-oxohexan-2-yl)amino)-2-((S)-2-(2-(4-hydroxy-3-methoxyphenyl)acetamido)-3-phenylpropanamido)-3-oxopropyl)phenyl)difluoromethyl)phosphonic Acid] ({Phenylacetyl(4-OH,3-OMe)}-F[F2Pmp]K(Benzoyl(3-Br,4-Me))[4Amb][Tle][Hyp]-{NHBn(4-(4-Me-thiazol-5-yl))}): the figures for the IC50 in assay [1] and in assay [2] were 51.2 ± 14.4 nM and 21.3 ± 1.7 nM, respectively. For the same compound, the “% Protein Degradation PTP1B” value in assay [3] was found to be 24%. Further, in assay [4], the percent TC-PTP degradation at 0.2 µM is 37%.

Consider `COc1cc(CC(=O)N[C@@H](Cc2ccccc2)C(=O)N[C@@H](Cc2ccc(C(F)(F)P(=O)(O)O)cc2)C(=O)N[C@@H](CCCCNC(=O)c2ccc(C)c(Br)c2)C(=O)N2CCN(CCC(=O)N[C@H](C(=O)N3C[C@H](O)C[C@H]3C(=O)NCc3ccc(-c4scnc4C)cc3)C(C)(C)C)CC2)ccc1O` [Compound 56, ((4-((S)-3-(((S)-6-(3-bromo-4-methylbenzamido)-1-(4-(3-(((S)-1-((2S,4R)-4-hydroxy-2-((4-(4-methylthiazol-5-yl)benzyl)carbamoyl)pyrrolidin-1-yl)-3,3-dimethyl-1-oxobutan-2-yl)amino)-3-oxopropyl)piperazin-1-yl)-1-oxohexan-2-yl)amino)-2-((S)-2-(2-(4-hydroxy-3-methoxyphenyl)acetamido)-3-phenylpropanamido)-3-oxopropyl)phenyl)difluoromethyl)phosphonic Acid] ({Phenylacetyl(4-OH,3-OMe)}-F[F2Pmp]K(Benzoyl(3-Br,4-Me))[X2][Tle][Hyp]-{NHBn(4-(4-Me-thiazol-5-yl))}), for which the IC50 in assay [1] stood at 13.7 ± 1.9 nM; in assay [2] it was 12 ± 0.8 nM. Further, the “% Protein Degradation PTP1B” value in assay [3] came out at 30%. Moreover, the percent TC-PTP degradation at 0.2 µM in assay [4] came out at 14%.
